Source: patent US5473103A, “Biopolymers derived from hydrolyzable diacid fats” (Yissum Research Development Co. of the Hebrew University of …, priority 1993, dated 1995)
Where a name gives a salt, the structure may show the parent alone.

Tested on: esterase from porcine liver
Assay: in vitro enzymatic degradation by esterase
Format: in vitro ADME
Settings: 200 mg monomer, 50 units esterase, 24 hours, 37° C., 1H NMR
Protocol: The enzymatic degradation of these new monomers were compared to those of the oligomerized fatty acids. The monomers RAM, HSAM, HSAS, FAD, and FAT (200 mg) were mixed in a solution containing esterase (2 ml, containing 50 units of esterase from porcine liver, Sigma Chemical Company, St. Louis, Missouri) and were incubated for 24 hours at 37° C. The monomers or their degradation products were extracted with chloroform and analyzed by ^1 H NMR. […] The RAM, and HSAS monomers contained about 10% ricinoleic acid or 12-hydroxy stearic acid, respectively.

SMILES | ricinoleic acid or 12-hydroxy stearic acid formed
CCCCCCC(CCCCCCCCCCC(=O)O)OC(=O)CCC(=O)O (centres unmarked) [HSAS, 12-hydroxy stearic acid succinate] | about 10%
CCCCCC[C@H](C/C=C\CCCCCCCC(=O)O)OC(=O)/C=C\C(=O)O [RAM, ricinoleic acid maleate] | about 10%
